Experimental findings from publication PMC12293736, “Discovery of N-(6-Methoxypyridin-3-yl)quinoline-2-amine Derivatives for Imaging Aggregated α-Synuclein in Parkinson’s Disease with Positron Emission Tomography” (Cells, 2025) are described below.

Some results are limits rather than exact numbers.

One experiment deals with recombinant α-synuclein fibrils (Homo sapiens, UniProt P37840). Kind of experiment: radioactive competitive binding assay with [^3H]BF2846 (Tables 1 and 2: or [^18F]7j with LBD-amplified fibrils). Particulars: Table 1; vs. [^3H]BF2846 or [^18F]7j as radioligand; NB = no binding affinity measurable; read-out: Ki. How it is done:
Three concentrations of the test compounds (10 nM, 100 nM, and 1 μM) were selected and individually mixed with [^3H]BF2846 (∼4 nM). Each mixture was then separately added to 50 nM of recombinant α-syn fibrils in a working buffer (50 mM Tris-HCl, 0.01% bovine serum albumin (BSA)). The mixture (150 μL) was gently mixed via agitation, covered, and then incubated at 37 °C for 1.5 h in a non-binding 96-well plate (Corning Inc., Corning, NY, USA; catalog no. 3605). The mixture was filtered through a Unifilter-96 harvesting system (PerkinElmer Inc., Waltham, MA, USA) and then washed three times with 250 μL of ice-cold buffer containing 10 mM Tris-HCl (pH 7.4), 15 mM NaCl, and 20% EtOH. Next, 50 μL of scintillation cocktail (MicroScint-20, PerkinElmer) was added to the collected filtrate and counted on a Microbeta system (PerkinElmer Inc., Waltham, MA, USA). The total binding was measured in the absence of the tested compounds, and non-specific binding was defined by the presence of 100 nM of unlabeled BF2846 in the working buffer.
For the full curve of α-syn competition binding, [^3H]BF2846 (∼4 nM) was incubated with fixed concentrations of 50 nM α-syn fibrils and ten concentrations of the tested compounds (0.05−1000 nM). All data points were collected in three individual experiments. The equilibrium inhibition constants, Ki values, were obtained from EC50 values using the equation Ki = EC50/(1 + [radioligand]/Kd) via non-linear regression from GraphPad Prism v.9.3.1 (GraphPad Software, San Diego, CA, USA) […]
In addition, competition assays were performed with LBD-amplified fibrils and [^18F]TZ61-44 with slight modifications. The method used to produce LBD-amplified fibrils is described by Dhavale et al., and the source of the tissue was the Banner Sun Health Research Institute Brain and Body Donation Program of Sun City, Arizona. Each test compound concentration (0.001–1 µM) was individually mixed with [^18F]TZ61-44 (2 nM), and the resulting mixture was then added to 25 nM of LBD-amplified fibrils in 30 mM of Tris-HCl buffer (pH 7.4) containing 0.1% BSA. The mix was incubated for 1 h with shaking. The samples were then transferred to Multiscreen FB filter plates (Catalog MSFBN6B50, MilliporeSigma) and washed three times with cold (4 °C) buffer. The glass fiber filters containing fibril-bound radioligands were removed and counted immediately in a PerkinElmer (1450-021) Trilux MicroBeta Liquid Scintillation counter using 150 µL of Optiphase Supermix cocktail (Perkin Elmer). All data points were obtained in triplicate. The data were analyzed using Graphpad Prism software (version 10) to the obtain EC50 and Ki values by fitting the data to a one-site competition model. The synthesis of the tested compounds is described in the Supporting Information. […]
6. Alpha-Synuclein Binding Affinity Studies a). Determination of α-synuclein binding activity using radioactive competitive assay [ 3H]BF2846 Three concentrations of test compounds (10nM, 100nM, and 1μM) were selected and individually mixed with [3H]BF2846 ( ∼4 nM). Each mixture was then separately added to 50 nM of recombinant α-syn fibrils in a working buffer (50 mM Tris-HCl, 0.01% bovine serum albumin (BSA)). The mixture (150 μL) was gently mixed by agitation, covered, and then incubated at 37°C for 1.5 h in a nonbinding 96 well plate (Corning, 3605). The mixture was filtered through a Unifilter – 96 harvesting system (PerkinElmer) and then washed three times with 250 μL of ice-cold buffer containing 10 mM Tris – HCl (pH7.4), 15mM NaCl, and 20% EtOH. 50μL of scintillation cocktail (MicroScint-20, PerkinElmer) was added to the collected filtrate and counted on a Microbeta system (PerkinElmer). Total binding was measured in the absence of tested compounds, and nonspecific binding was defined by the presence of 100 nM unlabeled BF2846 in the working buffer. The data analysis was carried out in the following equation and graphically presented with a heatmap. […]
On to `COc1ccc(Nc2ccc3ccccc3n2)cn1` [Compound 3a], for which the Ki was roughly 100 nM.
Regarding `COc1ccc(Nc2cnc3ccccc3c2)cn1` [Compound 3c], the Ki came out at 418 nM.
In the case of `COc1ccc(Nc2ccc3ncccc3c2)cn1` [Compound 3d], the Ki was greater than 1000 nM.
Regarding `COc1ccc(Nc2ccc3cnccc3c2)cn1` [Compound 3e], the Ki was found to be 46 nM.
With `COc1ccc(Nc2ccc3ccncc3c2)cn1` [Compound 3f], the Ki was greater than 1000 nM.
Same read-out and setting: the same measure for `COc1ccc(Nc2ccc3cccnc3c2)cn1` [Compound 3g]: greater than 1000 nM.

The same experiment, now with this note: Table 2; [^3H]BF2846 or [^18F]7j indirect competitive binding assay; read-out: Ki.
In the case of `COc1ccc(Nc2cc(F)c3ccccc3n2)cn1` [Compound 5b], the Ki was determined as 65 nM.
Same read-out and setting: the value for `COc1ccc(Nc2ccc3c(F)cccc3n2)cn1` [Compound 5c] was 33 nM; that for `COc1ccc(Nc2ccc3cc(F)ccc3n2)cn1` [Compound 5d] was 27 nM; that for `COc1ccc(Nc2ccc3ccc(F)cc3n2)cn1` [Compound 5e] was 53 nM.
With `COc1ccc(Nc2ccc3cccc(F)c3n2)cn1` [Compound 5f], the Ki turned out to be 41 nM.
As for `COc1ccc(Nc2ccc3cc([N+](=O)[O-])ccc3n2)cn1` [Compound 7a], the Ki stood at 21 nM.
For the compound `COc1ccc(Nc2ccc3cc(N)ccc3n2)cn1` [Compound 7c], the Ki is 82 nM.
As to `COc1ccc(Nc2ccc3cc(O)ccc3n2)cn1` [Compound 7e, 2-((6-Methoxypyridin-3-yl)amino)quinolin-6-ol], the Ki came out at 70 nM.
Same read-out and setting: the same measure for `COc1ccc2nc(Nc3ccc(OC)nc3)ccc2c1` [Compound 7f]: 4.6 nM; for `COc1ccc(Nc2ccc3cc(OC(F)F)ccc3n2)cn1` [Compound 7g]: 23 nM; for `COc1ccc(Nc2ccc3cc(OC(F)(F)F)ccc3n2)cn1` [Compound 7h]: roughly 100 nM.
In the case of `COc1ccc(Nc2ccc3cc(OS(=O)(=O)F)ccc3n2)cn1` [Compound 7i], the Ki is 320 nM.
Turning to `COc1ccc(Nc2ccc3cc(OCCF)ccc3n2)cn1` [Compound 7j], the Ki came out at 6.4 nM.

Staying with this experiment, now noted: Table 3; [^3H]BF2846 indirect competitive binding assay; read-out: Ki.
As for `COc1ccc(Nc2ccc3cc(OCCOCCF)ccc3n2)cn1` [Compound 7k], the Ki came out at 50 nM.
Consider `COc1ccc(Nc2ccc3cc(OCCOCCOCCF)ccc3n2)cn1` [Compound 7l], for which the Ki turned out to be 49 nM.
Consider `COc1ccc(Nc2ccc3cc(OCCOCCOCCOCCF)ccc3n2)cn1` [Compound 7m], for which the Ki was determined as 42 nM.
With `COc1ccc2nc(Nc3ccc(F)nc3)ccc2c1` [Compound 7n], the Ki was determined as 397 nM.
Still for that read-out and setting: the value for `COc1ccc2nc(Nc3ccc(C(F)(F)F)nc3)ccc2c1` [Compound 7o] was 182 nM.
Regarding `FCCOc1ccc2nc(Nc3ccc(C(F)(F)F)nc3)ccc2c1` [Compound 7p], the Ki came out at 81 nM.
Regarding `COc1ccc2nc(Nc3ccc(OC(F)(F)F)nc3)ccc2c1` [Compound 7q], the Ki was determined as 10 nM.
Regarding `COc1ccc2nc(Nc3ccc(SC)nc3)ccc2c1` [Compound 7r], the Ki worked out at 197 nM.
With `Cc1ccc(Nc2ccc3cc(OCCF)ccc3n2)cn1` [Compound 7s], the Ki came out at 26.1 nM.
On to `FCCOc1ccc2nc(Nc3cccnc3)ccc2c1` [Compound 7t], for which the Ki was greater than 500 nM.
Consider `COc1ccc(Nc2ccc3cc(OCC(F)(F)F)ccc3n2)cn1` [Compound 7u], for which the Ki came out at 44.6 nM.
In the case of `COc1ccc(Nc2ccc3cc(OCC4COC4)ccc3n2)cn1` [Compound 8a], the Ki was greater than 500 nM.
Consider `COc1ccc(Nc2ccc3cc(OCC4CCCCC4)ccc3n2)cn1` [Compound 8b], for which the Ki was greater than 500 nM.
Consider `COc1ccc(Nc2ccc3cc(OCc4ccccc4)ccc3n2)cn1` [Compound 8c], for which the inhibition constant Ki was 47.7 nM.
Consider `COc1ccc(Nc2ccc3cc(OCc4cccnc4)ccc3n2)cn1` [Compound 8e], for which the Ki stood at 24 nM.
As to `COc1ccc(COc2ccc3nc(Nc4ccc(OC)nc4)ccc3c2)cc1` [Compound 8f], the Ki was 20 nM.
Turning to `COc1cccc(COc2ccc3nc(Nc4ccc(OC)nc4)ccc3c2)c1` [Compound 8g], the Ki came to 36 nM.
For the compound `COc1ccc(Nc2ccc3cc(OCc4ccc(F)cc4)ccc3n2)cn1` [Compound 8h], the Ki was determined as 66.3 nM.
On to `COc1ccc(Nc2ccc3cc(OC/C=C/I)ccc3n2)cn1` [Compound 8i], for which the Ki is 5 nM.
Turning to `COc1ccc(Nc2ccc3nc(Nc4ccc(OC)nc4)ccc3c2)cn1` [Compound 8j], the Ki is greater than 1000 nM.

The experiment is the same for the next values; noted with them: [^3H]BF2846 competitive assay; read-out: Ki value for α-synuclein fibrils.
Consider `COc1ccc(Nc2ccc3ccccc3n2)cn1` [Compound 3a], for which the Ki turned out to be 100 nM.
Regarding `COc1ccc(Nc2ccc3cc(OC(F)(F)F)ccc3n2)cn1` [Compound 7h], the Ki stood at 100 nM.
